What was measured:
Type in all cases: cell-based, human
[1] = test system: NK-92-mediated cytolysis of A549 cells; assay: Inhibition of NK-92-mediated cytolysis of target cells by signaling pathway inhibitors (RT-CES)
Procedure: (FIG. 31A) A549 cells were seeded in the chambers of E-PLATES. Twenty four hours after seeding NK-cells at a density of 16:1 (E/T ratio) were pre-incubated with the different concentrations of the MEK inhibitor PD 98059 for thirty minutes and then added to A549 cells at the indicated time point (arrow). The viability of A549 cells were continually monitored using the RT-CES system. (FIG. 31B) The extent of NK-92 mediated cytolystic activity in the presence of MEK inhibitor was calculated at the indicated times post-NK addition as described in materials and methods section. (FIG. 31C) The effect of PI3 Kinase inhibitor Wortmannin on NK-92 mediated cytolysis of A549 cells. The cells were treated with the inhibitor as described in (FIG. 31A). (FIG. 31D) Percent cytolytic activity of NK-92 cells was calculated at the end of the experiment described in (FIG. 31C).
Cytolytic analysis. Target cells were seeded into the chambers of either 16-chamber or 96-chamber E-plate in 100 μL of media. Cell growth was dynamically monitored using the RT-CES system for a period of 24-34 hours, depending on the experiment until they reached log growth phase and formed a monolayer. […]
(§1) Inhibition of NK-mediated cytolysis of target cells by agents which block the signaling pathways leading to cytotoxicity. […] We calculated percent inhibition of cytolysis for both inhibitors at different time points after NK addition. […]

A549 cells = assay: Dynamic monitoring of drug interaction with target cells by RT-CES
Procedure: Drug Treatment and Cytotoxicity Assessment. […] The indicated cell numbers were seeded per chamber of ACEA's 16X or 96X E-Plate (cartridge for monitoring cell-substrate impedance) in 100 μL final volume.
In order to observe the kinetics of drug interaction with target cells, A549 non-small lung cancer cells were seeded in ACEA 96X E-Plate™ and continuously monitored until the cells reached the log growth phase at which point different concentrations of paclitaxel were added to the cells at the indicated final concentration. […] While it remains to be determined if this phenomenon is due to metabolism and inactivation of paclitaxel or due to the emergence of paclitaxel-resistant subpopulation, this experiment clearly exemplifies the tremendous advantage of real-time measurement which is offered by the RT-CES system and allows the user to the opportunity to observe and assess the entire history of drug interaction with the target cells which provides further information in addition to cell viability or cytotoxicity. The phenomenon observed in FIG. 20A would've been easily missed by traditional single-point assays such as MTT.
Yet another major advantage of using the RT-CES system to continually monitor the interaction of drugs with target cells is that the user can obtain insight into the mechanism of action of the drug of interest. […] The cells were treated with either DMSO as the vehicle control or with 100 μM Olomoucine which is a CDK inhibitor and induces cell cycle arrest either at G1→S transition or at the G2→M transition, depending on the cell line. […] The control cells treated with DMSO continue to proliferate until they reach confluence, at which time they are contact inhibited and the Cell Index recording levels off. […]
as §1

H460 cells = assay: Time-dependent cell index of cancer cells treated with anticancer drug (cell-substrate impedance)
Procedure: In this experiment, H460 cells were introduced into chambers of a 16X cell-substrate impedance monitoring cartridge (16X E-Plate). The cartridge was positioned on a cartridge station that was located in an incubator maintaining conditions of 37° C. and 5% CO2. The cells were cultured and treated at their exponential growth phase with different concentrations of paclitaxel. The dynamic response of the cells to different doses of paclitaxel was monitored by monitoring cell-substrate impedance in real time every 15 minutes for 50 hours after treatment using a cell-substrate impedance monitoring system. The cell-substrate impedance monitoring system calculated the cell index at each time point monitored and plotted the cell index as a function of time. […] However, the cell index reached a minimum at a time dependent on the compound concentration, between about 15 hours and 20 hours after compound addition. After that point, there was a gradual increase in cell index in these chambers.
H460 cells were introduced into chambers of a 16X cell-substrate impedance monitoring cartridge (16X E-Plate). […] The dynamic response of the cells to different doses of AC101103 was monitored by measuring impedance in real time every 30 minutes for about 20 hours after treatment on the cell-substrate monitoring system. […]

[2] = A549 cells, highest concentration

| Structure (SMILES) | inhibition of NK-92-mediated cytolysis ([1]; NK-92 pre-incubated with inhibitor, then added to A549 target cells) | time dependence of percent inhibition of cytolysis ([1]; different time points after NK addition) | effect of inhibitor alone on target cell baseline (A549 cells; A549 target cells incubated with inhibitor alone, no NK cells) | time over which cell index exhibited a near-constant value (H460 cells; 33 nanomolar) | cell index response after compound addition (H460 cells; concentrations between 67 nanomolar and 500 nanomolar) | initial effect on Cell Index (with Annexin V staining) (A549 cells; [2]) | later course of Cell Index after the initial effect (A549 cells; [2]) |
| --- | --- | --- | --- | --- | --- | --- | --- |
| COc1cccc(-c2cc(=O)c3ccccc3o2)c1N [PD98059] | dose-dependently inhibited NK-92-mediated cytolysis of A549 cells | consistent inhibition of cytolysis at all the indicated time points | minimal effect on the baseline |  |  |  |  |
| CC(=O)O[C@H]1C(=O)[C@@]2(C)[C@H]([C@H](OC(=O)c3ccccc3)[C@]3(O)C[C@H](OC(=O)[C@H](O)[C@@H](NC(=O)c4ccccc4)c4ccccc4)C(C)=C1C3(C)C)[C@]1(OC(C)=O)CO[C@@H]1C[C@@H]2O [paclitaxel] |  |  |  | about 15 hours | gradual decrease in cell index | initially induces a cytotoxic effect which is mainly due to cell death | recover from the initial cytotoxic effect of the drug and start to re-proliferate |
